# Test results: PubChem BioAssay AID2742 (NMMLSC, 2010)
# Values joined by “and” are separate entries in the source; they are usually repeats but may differ in a detail not shown here. Identical values can stand only once. Active and inactive are the calls of the source.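 The calls were made as follows: active = fitted half-maximal concentration for changing background-corrected GFP signal at or below a set limit; inactive = the rest.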
# System: not listed separately
# Assay: modulators of MEP2-GFP levels in yeast, dose response, S. cerevisiae, flow cytometry GFP, MLPCN hits (AID 2742);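 as to EC50: curve fit on GFP signal minus compound signal in parental s288c strain lacking GFP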;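 as to GFP fluorescence (kMESF), higher = increase: GFP tag reports level of MEP2 protein as a downstream target of TOR signalling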
# Details: S. cerevisiae MEP2-GFP strain, flow cytometry fluorescence, 3 h; at 33 µM (top of the series)
row,SMILES,"GFP fluorescence (kMESF), higher = increase"
1,COc1ccc2c(c1)S/C(=C\C(=O)c1ccncc1)N2C,2.67 kMESF (inactive)
2,CC1=C(C)/C(=N\OS(=O)(=O)c2ccc(C)cc2)C=CC1=O,4.38 kMESF (inactive)
3,CCc1ccc(/C=C/C(=O)c2cc(Br)ccc(=O)c2O)cc1,5.16 kMESF (inactive)
4,Cc1[nH]c(-c2ccccn2)nc(=S)c1Cl,4.24 kMESF (inactive)
5,O=[N+]([O-])c1cc(Cl)cc(/C=N\Nc2ccccn2)c1O,4.91 kMESF (inactive)
6,C#CCOCCOCCOCCNc1nc(N2CCN(C(=O)CCCCCCCCCCNC(=O)[C@H](CCCCN)n3cc(CCCC(=O)O)nn3)CC2)nc(N2CCN(C(=O)CCCCCCCCCCNC(=O)[C@H](CCCN=C(N)N)n3cc(C[C@@H](C)CC)nn3)CC2)n1,3.78 kMESF (inactive)
7,Cc1ccc(NN2C(=O)C=C(c3ccc(Cl)cc3)C2=O)cc1,4.9 kMESF (inactive)
8,O=C1c2ccccc2C(=O)N1OS(=O)(=O)c1ccccc1,3.26 kMESF (inactive)
9,Cc1cc(NC(=O)c2cccnc2Cl)ccc1NC(=O)c1cc2ccccc2o1,3.21 kMESF (inactive)
10,ClC(Cl)(c1nnnn1-c1ccccc1)c1nnnn1-c1ccccc1,4.4 kMESF (inactive)
11,Cn1ncc(S(=O)(=O)Cc2ccccc2)c(Cl)c1=O,4.57 kMESF (inactive)
12,Cc1ccc(O)c(N=Nc2nccs2)c1,2.87 kMESF (inactive)
13,COc1cc(/C=C2\C(=O)ON=C2c2ccc(Cl)cc2)ccc1O,3.71 kMESF (inactive)
14,O=C(/C=C/c1ccccc1)NC(=S)NNC(=O)Cc1cccs1,2.02 kMESF (inactive)
15,C[C@@]12C(=O)OC(=O)[C@]1(C)C1CCC2O1,3.51 kMESF (inactive)
16,CC(=O)Oc1ccc(N2C(=O)C3C4C=CC(O4)C3C2=O)cc1 (stereo unspecified),3.13 kMESF (inactive)
17,O=[N+]([O-])c1ccc(O)c2ncccc12,3.94 kMESF (inactive) and 3.38 kMESF (inactive)
18,Cc1ccc(C)c(/C=C/C(=O)c2ccccc(=O)c2O)c1,-0.95 kMESF (inactive)
19,CC(=O)NN1C(=O)/C(=C/c2ccc(Br)o2)SC1=S,-0.17 kMESF (inactive)
20,CC(=O)OC[C@]12CC[C@H]3[C@@](C)(CC[C@H]4C(C)(C)CCC[C@]34C)[C@@H]1C[C@H](C1=CC(=O)O[C@@H]1OC(C)=O)O2,1.79 kMESF (inactive)
21,COc1ccc(N2C(=O)C(Cl)=C(NCc3ccccc3)C2=O)cc1,3.91 kMESF (inactive)
22,CCC1(c2ccccc2)ON(c2c(Br)cccc2Br)C1=O (stereo unspecified),3.17 kMESF (inactive)

row,SMILES,"GFP fluorescence (kMESF), higher = increase"
1,Cc1ccc(C(c2cc(Cl)c3cccnc3c2O)N2CCN(C)CC2)cc1 (stereo unspecified),3.22 kMESF (inactive)
2,CN(Cc1cnc2nc(N)nc(N)c2n1)c1ccc(C(=O)N[C@@H](CCC(=O)O)C(=O)O)cc1,2.67 kMESF (inactive) and 1.92 kMESF (inactive)
3,O=S(=O)(CCN(CCS(=O)(=O)C(F)(F)F)CC1CCCO1)C(F)(F)F (stereo unspecified),4.69 kMESF (inactive)
4,Cc1cccc(N=C2NC(=O)/C(=C/C=C/c3ccco3)S2)c1C,6.73 kMESF (inactive)
5,O=C(O)c1ccccc1SC1CC(=O)N(c2ccc3c(c2)OCO3)C1=O (stereo unspecified),3.4 kMESF (inactive)
6,CC(C)(C)n1nc(-c2ccc(F)cc2)c2c(N)ncnc21,4.89 kMESF (inactive)
7,[O-][n+]1cccc2c(Br)cc(Br)c(O)c21,5.76 kMESF (inactive)
8,Cc1ccc(C2=NN(S(C)(=O)=O)C(c3ccc4c(c3)OCO4)C2)cc1 (stereo unspecified),2.44 kMESF (inactive)
9,C/C(=N\Nc1ncnc2sc(C)c(C)c12)c1ccccn1,38.2 kMESF (inactive)
10,Oc1ccc(N=Nc2ccccc2)o1,4.33 kMESF (inactive)
11,O=C(CSC1=NS(=O)(=O)c2ccccc21)Nc1ccccc1,2.66 kMESF (inactive)
12,COc1cccc(/C=C2\SC(=S)N(CCCC(=O)Nc3ccc(C(=O)O)cc3)C2=O)c1,1.55 kMESF (inactive)
13,On1ccccc1=S,3.58 kMESF (inactive)
14,COc1ccc(Cl)cc1C(Nc1cccnc1)c1ccc2cccnc2c1O (stereo unspecified),5.91 kMESF (inactive)
15,O=C1C2C3C=CC(CO)(O3)C2C(=O)N1c1ccc(-c2ccccc2)cc1 (stereo unspecified),4.74 kMESF (inactive)
16,C#CCOCCOCCOCCNc1nc(N2CCN(C(=O)CCCCCCCCCCNC(=O)[C@H](CCCCN)n3cc(CCO)nn3)CC2)nc(N2CCN(C(=O)CCCCCCCCCCNC(=O)[C@H](CCCCN)n3cc(C[C@@H](C)CC)nn3)CC2)n1,3.23 kMESF (inactive)
17,O=C(Oc1c(Cl)cc(Cl)c2cccnc12)c1cccc([N+](=O)[O-])c1,4.13 kMESF (inactive)
18,C/C(=N/NC(=O)c1ccc(C(C)(C)C)cc1)c1ccccn1,5.35 kMESF (inactive)
19,N/C(Cc1ccc(Cl)cc1Cl)=N\OC(=O)c1cccs1,4.76 kMESF (inactive)
20,O=C(Nc1nnc(-c2ccc(Cl)cc2)o1)c1ccccc1Br,4.01 kMESF (inactive)
21,O=C(c1ccc(Cl)c([N+](=O)[O-])c1)N1CCN(c2ccccc2)CC1,2.46 kMESF (inactive)
22,O=c1oc(/C=C/c2ccc([N+](=O)[O-])s2)nc2ccccc12,5.31 kMESF (inactive)

row,SMILES,"GFP fluorescence (kMESF), higher = increase"
1,COc1cccc(/C=N/Nc2ncc(C(F)(F)F)cc2Cl)c1O,3.26 kMESF (inactive)
2,CC(=O)Oc1ccc(N2C(=O)C3C4C=CC(CO)(O4)C3C2=O)cc1 (stereo unspecified),3.1 kMESF (inactive)
3,COc1ccccc1C(=O)NNC(=S)NC(=O)c1ccco1,3.64 kMESF (inactive)
4,O=C(COc1ccccc1)NNC(=S)NC(=O)c1ccc(Cl)cc1Cl,4.07 kMESF (inactive)
5,O=C1ON=C(c2ccccc2)/C1=C/c1ccc(-c2ccccc2[N+](=O)[O-])o1,5.5 kMESF (inactive)
6,COc1ccc(-c2cc3nc4n(c(=O)c3s2)CCC4)cc1,1.07 kMESF (inactive)
7,COc1ccc(CCNC2=C(Cl)C(=O)N(CCc3ccc(OC)c(OC)c3)C2=O)cc1OC,2.9 kMESF (inactive)
8,O=C(/C=C/c1cc(Br)ccc1O)c1ccco1,6.67 kMESF (inactive)
9,Cc1ccc(S(=O)(=O)N2CC(C(=O)O)=CC[C@H]2c2ccc(Cl)cc2)cc1,3.69 kMESF (inactive)
10,C#CCOCCOCCOCCNc1nc(N2CCN(C(=O)CCCCCCCCCCNC(=O)[C@@H](CCC(=O)O)n3cc(CCCCCN)nn3)CC2)nc(N2CCN(C(=O)CCCCCCCCCCNC(=O)[C@H](CCCCN)n3cc(C[C@@H](C)CC)nn3)CC2)n1,3.84 kMESF (inactive)
11,Cc1cc(C)c(S(=O)(=O)N2CCC(C(=O)NCc3ccc(Cl)cc3Cl)CC2)c(C)c1,4.68 kMESF (inactive)
12,COc1ccc(N2C(=O)C(Cl)=C(Oc3cccc(OC)c3)C2=O)cc1,4.18 kMESF (inactive)
13,CCc1nc2ccccc2c(=O)n1NC(=O)c1c(O)c2cccc3c2n(c1=O)CCC3,1.72 kMESF (inactive)
14,O=C(CCS(=O)(=O)c1ccccc1)Nc1nc(-c2ccccn2)cs1,1.34 kMESF (inactive)
15,O=c1c2cc(Cl)ccc2nc(-c2ccc([N+](=O)[O-])cc2)n1O,4.58 kMESF (inactive)
16,CCOc1ccc(C(Nc2cccnc2)c2cc(Cl)c3cccnc3c2O)cc1 (stereo unspecified),4.24 kMESF (inactive)
17,Cc1cccnc1Nc1nc(-c2ccccn2)cs1,2.08 kMESF (inactive)
18,CCCS(=O)(=O)c1nnnn1-c1cccc(OC)c1,2.18 kMESF (inactive)
19,O=C(O)C1Sc2[nH]c(=O)sc2C2c3cc(Br)ccc3OC(=O)C12 (stereo unspecified),4.8 kMESF (inactive)
20,Cc1cccc(OCCN2CSC(=S)N(C)C2)c1,3.71 kMESF (inactive)
21,CC(=O)N(C1=C(Cl)C(=O)c2ccccc2C1=O)C1CCCCC1,-3.41 kMESF (inactive)
22,O=C(O)/C=C/C(=O)c1ccc2c(c1)CCc1ccccc1-2,4.6 kMESF (inactive)

# System: S. cerevisiae MEP2-GFP strain, flow cytometry fluorescence, 3 h
# Assay: as above
# Details: not given
row,SMILES,EC50 [nM]
1,CCCCCCCCn1sccc1=O,1230
2,Nc1ccc(Br)c2c1C(=O)c1ccccc1C2=O,1040
3,O=C1NC(=O)C(=Cc2ccc(-c3ccc(Cl)cc3)o2)C(=O)N1,1380
4,O=C1NC(=O)N(Cc2ccc(F)cc2)C(=O)/C1=C/c1cccs1,3010
5,CNc1nc(N)c([N+](=O)[O-])c(Nc2cccc(F)c2)n1,6850
6,CNC(CC(=O)c1ccc([N+](=O)[O-])cc1)C(Cl)(Cl)Cl (stereo unspecified),2280
7,Cc1ccc(/C=C/C(=O)c2ccccc(=O)c2O)c(C)c1,13700
8,CCOC(=O)COc1ccc2ccccc2c1/C=C/[N+](=O)[O-],12700
9,O=C(Oc1ccnc2cc(Cl)ccc12)N1CCCCCC1,3860
10,CC1(C)C[C@H]2C=C(C=O)[C@]3(C=O)C[C@]3(C)[C@H]2C1,1260
